The values that follow are results of earlier work, collected in patent US12219980B2, “Nutritionally enhanced fraction from rice bran and method of lowering insulin resistance using same” (QJV, LLC, priority 2010, dated 2025).

For data set [1] the following is noted: in vivo.
In another data set the target is T1, HMG-CoA (Homo sapiens, UniProt P04035).
T1 sequence (P04035 1-888): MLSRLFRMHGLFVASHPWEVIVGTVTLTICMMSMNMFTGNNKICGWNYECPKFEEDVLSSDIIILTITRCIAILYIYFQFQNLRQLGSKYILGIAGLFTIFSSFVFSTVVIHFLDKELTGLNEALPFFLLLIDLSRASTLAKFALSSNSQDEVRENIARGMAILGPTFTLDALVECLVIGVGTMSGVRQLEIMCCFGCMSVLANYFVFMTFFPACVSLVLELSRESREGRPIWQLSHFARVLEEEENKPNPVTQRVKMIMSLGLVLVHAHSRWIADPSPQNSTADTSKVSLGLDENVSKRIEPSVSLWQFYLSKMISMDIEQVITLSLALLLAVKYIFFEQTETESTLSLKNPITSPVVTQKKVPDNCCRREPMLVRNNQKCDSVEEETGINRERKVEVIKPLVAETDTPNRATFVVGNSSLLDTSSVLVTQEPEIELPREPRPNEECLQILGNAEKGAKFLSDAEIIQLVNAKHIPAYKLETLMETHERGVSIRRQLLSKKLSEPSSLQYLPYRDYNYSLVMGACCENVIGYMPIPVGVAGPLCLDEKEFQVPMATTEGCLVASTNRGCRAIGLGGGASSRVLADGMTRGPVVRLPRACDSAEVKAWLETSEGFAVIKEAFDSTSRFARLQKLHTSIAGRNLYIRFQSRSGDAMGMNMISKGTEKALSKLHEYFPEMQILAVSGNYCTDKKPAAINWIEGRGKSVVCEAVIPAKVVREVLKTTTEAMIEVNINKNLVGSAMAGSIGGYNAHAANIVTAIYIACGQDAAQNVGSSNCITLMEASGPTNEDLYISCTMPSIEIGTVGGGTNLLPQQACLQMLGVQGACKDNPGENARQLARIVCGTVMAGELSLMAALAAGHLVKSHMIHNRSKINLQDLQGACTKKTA
Conditions: micromolar amounts.

The conditions of data set [2]: in vivo. The source holds these as a separate data set.
For data set [3] the following is noted: animal studies, compared with controls.

Regarding gamma-oryzanol, the “bile acid secretion and fecal excretion of cholesterol” value in data set [1] is “affect bile acid secretion and fecal excretion of cholesterol”. On to tocotrienol, for which the “activity of HMG-CoA” value at HMG-CoA is listed as “suppress the activity of HMG-CoA”. In addition, the “total cholesterol and LDL cholesterol in blood plasma” value in data set [2] is listed as “lower”.

Regarding `COc1cc(/C=C/C(=O)O)ccc1O` [ferulic acid], in data set [3], the “activities of hepatic glucose-6-phosphate dehydrogenase, catalase and peroxidase” value is on record as “diminishing”; the “levels of glycogen in the liver and skeletal muscle” value is “significantly decreased”.
